Source: patent publication US6835536B2, “Antimicrobial cationic peptides and formulations thereof” (Micrologix Biotech Inc., priority 2001, dated 2004)

Key:
Assay in all cases: Agarose dilution MIC assay
Format in all cases: cell-based
S. maltophilia = S. maltophilia strain SMA002
Text: (§1) The agarose dilution assay measures antimicrobial activity of peptides and peptide analogues. The activity is expressed as the minimum inhibitory concentration (MIC) in μg/ml of the peptide.
(§2) In order to mimic in vivo conditions, calcium and magnesium supplemented Mueller Hinton broth is used in combination with a low EEO agarose as the bacterial growth medium. Agarose, rather than agar, is used as the charged groups in agar prevent peptide diffusion through the medium. The medium is autoclaved, then cooled to 50-55° C. in a water bath before aseptic addition of a peptide solution. The same volume of different concentrations of peptide solution is added to the cooled, molten agarose that is then poured into a petri plate to a depth of 3-4 mm and allowed to solidify.
(§3) The bacterial inoculum is adjusted to a 0.5 McFarland turbidity standard (PML Microbiological) and then diluted 1:10 before application on to the agarose plate. The final inoculum applied to the agarose is approximately 10^4 CFU in a 5-8 mm diameter spot. The agarose plates are incubated at 35-37° C. for 16 to 20 hours.

C. albicans = C. albicans strain CAL002; agarose dilution
Text: as §1, §2, §3

S. pyogenes = S. pyogenes strain SPY001
Text: as §1, §2, §3

S. epidermidis = S. epidermidis strain SEP010; agarose dilution
Text: as §1, §2, §3

C. jeikeium = C. jeikeium strain CJK005
Text: as §1, §2, §3

S. mitis = S. mitis strain SMT014
Text: as §1, §2, §3

E. coli = E. coli strain ECO005
Text: as §1, §2, §3

P. aeruginosa = P. aeruginosa strain PAE004; agarose dilution
Text: as §1, §2, §3

K. pneumoniae = conditions: K. pnenmoniae strain KPN001
Text: as §1, §2, §3

A. calcoaceticus = A. calcoaceticus strain ACA002
Text: as §1, §2, §3

S. pneumoniae = S. pneumoniae strain SPN002
Text: as §1, §2, §3

S. marcescens = S. marcescens strain SMS003
Text: as §1, §2, §3

E. cloacae = E. cloacae strain ECL007
Text: as §1, §2, §3

C. neoformans = C. neoformans strain CNE001
Text: as §1, §2, §3

S. aureus = S. aureus strain SAU014; agarose dilution
Text: as §1, §2, §3

E. faecalis = E. faecalis strain EFS001
Text: as §1, §2, §3

Row | Substance | Minimum Inhibitory Concentration (S. maltophilia) | Minimum Inhibitory Concentration (C. albicans) | Minimum Inhibitory Concentration (S. pyogenes) | Minimum Inhibitory Concentration (S. epidermidis) | Minimum Inhibitory Concentration (C. jeikeium) | Minimum Inhibitory Concentration (S. mitis) | Minimum Inhibitory Concentration (E. coli) | Minimum Inhibitory Concentration (P. aeruginosa) | Minimum Inhibitory Concentration (K. pneumoniae) | Minimum Inhibitory Concentration (A. calcoaceticus) | Minimum Inhibitory Concentration (S. pneumoniae) | Minimum Inhibitory Concentration (S. marcescens) | Minimum Inhibitory Concentration (E. cloacae) | Minimum Inhibitory Concentration (C. neoformans) | Minimum Inhibitory Concentration (S. aureus) | Minimum Inhibitory Concentration (E. faecalis)
1 | i L K K W P W W P W R R k [Peptide 11E3CN] | 64 µg/mL | 32 µg/mL | 1 µg/mL | 4 µg/mL | 0.5 µg/mL | 2 µg/mL | 8 µg/mL | 64 µg/mL | 32 µg/mL | 4 µg/mL | 4 µg/mL | >128 µg/mL | >128 µg/mL | 4 µg/mL | 8 µg/mL | 64 µg/mL
2 | R L F V W W V F R R [Peptide 11F64CN] | 1 µg/mL | 16 µg/mL | 1 µg/mL | 1 µg/mL | 0.5 µg/mL | 1 µg/mL | 2 µg/mL | 16 µg/mL | 2 µg/mL | 2 µg/mL | 2 µg/mL | >128 µg/mL | 16 µg/mL | 8 µg/mL | 1 µg/mL | 2 µg/mL
3 | I L K W V W W V W R R K [Peptide 11B36CN] | 8 µg/mL | 8 µg/mL | 2 µg/mL | 2 µg/mL | 1 µg/mL | 2 µg/mL | 8 µg/mL | 32 µg/mL | 8 µg/mL | 2 µg/mL | 4 µg/mL | >128 µg/mL | 64 µg/mL | 16 µg/mL | 2 µg/mL | 16 µg/mL
4 | R L W V W W V W R r [Peptide 11F68CN] | 2 µg/mL | 32 µg/mL | 1 µg/mL | 1 µg/mL | 0.5 µg/mL | 1 µg/mL | 2 µg/mL | 32 µg/mL | 2 µg/mL | 1 µg/mL | 2 µg/mL | >128 µg/mL | 32 µg/mL | 8 µg/mL | 2 µg/mL | 2 µg/mL
5 | R L G G G W V W W V W R R [Peptide 11F50CN] | 8 µg/mL | 32 µg/mL | 1 µg/mL | 1 µg/mL | 0.5 µg/mL | 1 µg/mL | 4 µg/mL | >128 µg/mL | 16 µg/mL | 2 µg/mL | 2 µg/mL | >128 µg/mL | >128 µg/mL | 16 µg/mL | 2 µg/mL | 16 µg/mL
